# Reference: article PMC12655457, “Does CytoSorb Interfere with Immunosuppression? A Pharmacokinetic and Functional Evaluation” (Pharmaceutics, 2025)
# Key:
# [1] = Removal of immunosuppressants by chronic dialysis (ex vivo, plasma); assay type: in vitro ADME, human
# Description: (§1) To evaluate the effect of dialysis under clinically relevant conditions, both chronic and acute dialysis settings were simulated using standard Fresenius systems. In all experiments, 1.5 L of citrated human plasma was dialyzed against calcium-free dialysate at 37 °C.
# (§2) Prior to circulation, the systems were flushed with 2 L of isotonic saline. Plasma samples were collected at defined time points (15–480 min) and analyzed for immunosuppressants, urea, and albumin. Chronic dialysis represents intermittent high-flow conditions, whereas acute dialysis mimics continuous low-flow therapy used in critically ill patients.
# (§3) The clearance (C) of each compound during both the dialysis and the dynamic CytoSorb experiments was calculated using the first-order exponential decay formula:(2) C = V/t ×lnCo/Ct where V = plasma volume, t = treatment time [min], C0 = concentration before starting treatment, Ct = concentration at time t.
# [2] = literature; ref 21 (6-MP), 22 (CsA), 23 (MPR), 24 (MPA), 25 (TAC); cited from earlier work
# [3] = system: human whole blood; test: Whole blood cell model: anti-CD3 stimulation, cytokine measurement; assay type: cell-based; details: + Anti-CD3, + CytoSorb
# Description: (§5) Subsequently, the blood was split into two experimental groups: one was treated with CytoSorb in a batch setup, and the other served as an untreated control, incubated under identical conditions at 37 °C on a roller mixer. Following treatment, all samples were allowed to rest for 4 h. After the resting period, blood samples were stimulated with either lipopolysaccharide (LPS) E. coli or with anti-CD3 antibodies. […] The stimulation was carried out for 4 h at 37 °C on a roller mixer. Thereafter, the blood samples were centrifuged, and the plasma was collected and stored at −80 °C. Leukocyte activation was assessed by quantification of IL-1β, IL-6, IL-8, and TNF-α.
# [4] = system: human whole blood; test: Whole blood cell model: LPS stimulation, cytokine measurement; assay type: cell-based; details: + CytoSorb
# Description: as §5
# [5] = Dynamic CytoSorb adsorption setup (scaled-down circuit, whole blood); assay type: in vitro ADME, human; details: for mean clearance rate: CytoSorb treatment, at 15 min, Equation (2); for adsorption (removal) by CytoSorb: dynamic ex vivo circuit, 400 mL human whole blood, 30 mL cartridge, 4 h; for reduction of serum levels by CytoSorb (abstract): as stated in the abstract, experiment not specified
# Description: To quantify the depletion of selected immunosuppressants during CytoSorb treatment under dynamic conditions, a scaled-down extracorporeal circulation system was established, consisting of a 30 mL CytoSorb adsorption cartridge and a pediatric tubing set filled with 400 mL of freshly drawn human whole blood (Figure 1b). To distinguish between drug removal by adsorption versus uptake by blood components, a control circuit with an identical setup but an empty cartridge was run in parallel for each experiment. Whole blood from two healthy donors of the same blood group was pooled, anticoagulated with citrate (final concentration: 7 mM), spiked with the immunosuppressants, and divided into two 400 mL blood bags.
# Prior to circulation, the entire system was flushed with isotonic saline. Then, one of the prepared blood bags (Group 1 or Group 2) was connected to the circuit and circulated for 30 min at 37 °C without the adsorber cartridge to allow for equilibration. Following this equilibration, a baseline sample (0 min) was collected, and the adsorption column was introduced into the circuit. In the adsorption circuit, samples were collected at 15, 30, 60, 120, 180 and 240 min. In the control circuit, samples were taken at baseline and after 240 min. All blood samples were centrifuged (3500× g, 10 min) to separate plasma, which was stored at −80 °C until further analysis.
# as §3
# (§4) MPA was determined using a validated test for the Cobas c311 autoanalyzer from Roche (Basel, Switzerland). 6-MP was quantified by reversed-phase HPLC [17, 18]. After precipitation of the plasma sample with ice cold methanol in ratio 1:5, 30 µL of the supernatant was injected into a Nukleosil 100-5C18, 4.6 × 150 mm C18 column (Macherey-Nagel, Düren, Germany), combined with an Onyx Monolithic C18, 4.6 × 5 mm guard column (Phenomenex, Torrance, CA, USA). The mobile phase consisted of methanol and deionised water (50:50) which was continuously pumped with a flow rate of 0.8 mL/min for five minutes. 6-MP was quantified with a retention time of 2.3 min using an UV detector (325 nm). The quantification of cytokines was determined by Magnetic Luminex Assay with a human premixed Multi Analyte Kit (R&D Systems, Minneapolis, MN, USA). The urea, albumin and total protein levels were measured with the cobas c311 automated analyzer with corresponding test kits from Roche (Penzberg, Germany).
# [6] = parameters: method as in earlier work; details: literature; ref 23 (methylprednisolone), 24 (mycophenolate), 41 (6-mercaptopurine); cited from earlier work
# [7] = Static CytoSorb adsorption setup (spiked plasma with CytoSorb resin); assay type: in vitro ADME, human; details: plasma:resin 1:10 v/v, 60 min, 37 °C, n = 3
# Description: Plasma was obtained by centrifugation (3500× g, 10 min) from citrate-anticoagulated human whole blood and spiked with immunosuppressants to defined target concentrations (Table 1). To evaluate adsorption, plasma was incubated with the CytoSorb resin at 1:10 (v/v) for 60 min at 37 °C on a roller mixer. In parallel, a separate aliquot of spiked plasma was incubated with autologous blood cells (1:1, v/v) to assess cellular uptake of immunosuppressants. Untreated spiked plasma served as control (Figure 1a). Samples were collected before and after incubation for subsequent analysis.
# as §4
# [8] = Determination of protein binding by ultrafiltration; assay type: in vitro ADME; details: human plasma, ultrafiltration 30 kDa cutoff; for fraction unbound: read-out: Protein Binding in Plasma, Current Study (converted)
# Description: To assess protein binding of the tested immunosuppressants, human plasma was spiked with the respective drugs and urea as a freely diffusible control. Samples were then subjected to ultrafiltration (30 kDa cutoff, 15,000× g, 20 min). The protein-bound fraction was calculated using the following formula:(1) protein binding %= 1−Cfiltrate/Cplasma where cplasma is the concentration of each compound in plasma and cfiltrate is its concentration in the ultrafiltrate.
# [9] = Whole blood cell model: immunosuppressant serum levels after CytoSorb treatment; assay type: in vitro ADME, human; details: overnight incubation, p < 0.05, n = 6
# Description: To investigate whether the in vitro depletion of immunosuppressants by CytoSorb affects immunosuppression, a whole blood cell model was established. The experiment was conducted over two consecutive days. A graphical overview of the setup is provided in Supplementary Figure S1. On day one, freshly drawn human whole blood was incubated overnight at 37 °C with various immunosuppressants, either individually or in combination, to allow for sufficient drug exposure prior to CytoSorb treatment.
# Subsequently, the blood was split into two experimental groups: one was treated with CytoSorb in a batch setup, and the other served as an untreated control, incubated under identical conditions at 37 °C on a roller mixer. Following treatment, all samples were allowed to rest for 4 h. After the resting period, blood samples were stimulated with either lipopolysaccharide (LPS) E. coli or with anti-CD3 antibodies. LPS primarily activates monocytes and neutrophils via the TLR4/CD14/MD2 complex, while anti-CD3 specifically stimulates T cells. The stimulation was carried out for 4 h at 37 °C on a roller mixer. Thereafter, the blood samples were centrifuged, and the plasma was collected and stored at −80 °C. Leukocyte activation was assessed by quantification of IL-1β, IL-6, IL-8, and TNF-α.
# as §4
# [10] = Removal of immunosuppressants by acute dialysis (CVVHD, ex vivo, plasma); assay type: in vitro ADME, human
# Description: as §1, §2, §3
Structure (SMILES),removal by dialysis (in words) [1],IL-1β serum level ([3]; test 1),IL-6 serum level ([3]; test 1),IL-8 serum level ([3]; test 1),TNF-α serum level ([3]; test 1),IL-1β serum level ([3]; test 2),IL-6 serum level ([3]; test 2),IL-8 serum level ([3]; test 2),TNF-α serum level ([3]; test 2),IL-1β serum level ([3]; test 3),IL-6 serum level ([3]; test 3),IL-8 serum level ([3]; test 3),TNF-α serum level ([3]; test 3),IL-1β serum level ([4]; test 1),IL-6 serum level ([4]; test 1),IL-8 serum level ([4]; test 1),TNF-α serum level ([4]; test 1),IL-1β serum level ([4]; test 2),IL-6 serum level ([4]; test 2),IL-8 serum level ([4]; test 2),further results
"COc1c(C)c2c(c(O)c1C/C=C(\C)CCC(=O)O)C(=O)OC2 [MPA, mycophenolic acid]",only slightly reduced,0 pg/mL,4 pg/mL,564 pg/mL,107 pg/mL,115 pg/mL,645 pg/mL,3704 pg/mL,109 pg/mL,170 pg/mL,952 pg/mL,4924 pg/mL,55 pg/mL,992 pg/mL,3303 pg/mL,4068 pg/mL,3390 pg/mL,112 pg/mL,627 pg/mL,2855 pg/mL,"Protein Binding in Plasma, Reference [2]: 97 [24] %; TNF-α serum level ([4]; test 2): 1274 pg/mL; IL-1β serum level ([4]; test 3): 1465 pg/mL; IL-6 serum level ([4]; test 3): 16855 pg/mL; IL-8 serum level ([4]; test 3): 15529 pg/mL; TNF-α serum level ([4]; test 3): 720 pg/mL; mean clearance rate [5]: approximately 44 mL/min; adsorption (removal) by CytoSorb [5]: 76 ± 2%; volume of distribution (Vd) [6]: ≈ 3.6 L/kg; reduction of level in plasma by CytoSorb [7]: 37 ± 6%; fraction unbound [8]: 0.021; reduction in serum level following CytoSorb treatment (in words) [9]: significant reduction"
"C[C@H]1C[C@@H]2[C@H]([C@@H](O)C[C@@]3(C)[C@H]2CC[C@]3(O)C(=O)CO)[C@@]2(C)C=CC(=O)C=C12 [MPR, methylprednisolone]",high removal,0 pg/mL,1 pg/mL,171 pg/mL,43 pg/mL,44 pg/mL,16 pg/mL,242 pg/mL,57 pg/mL,70 pg/mL,30 pg/mL,686 pg/mL,41 pg/mL,354 pg/mL,3786 pg/mL,6337 pg/mL,2920 pg/mL,26 pg/mL,73 pg/mL,1630 pg/mL,"clearance ([1]; initial values): ~ 75 mL/min; Protein Binding in Plasma, Reference [2]: 77 [23] %; TNF-α serum level ([4]; test 2): 416 pg/mL; IL-1β serum level ([4]; test 3): 190 pg/mL; IL-6 serum level ([4]; test 3): 3799 pg/mL; IL-8 serum level ([4]; test 3): 7104 pg/mL; TNF-α serum level ([4]; test 3): 1250 pg/mL; mean clearance rate [5]: ~49 mL/min; reduction of serum levels by CytoSorb (abstract) [5]: 92 ± 3%; adsorption (removal) by CytoSorb [5]: 92 ± 3%; volume of distribution (Vd) [6]: ≈ 1.4 L/kg; reduction of level in plasma by CytoSorb [7]: 91 ± 2%; fraction unbound [8]: 0.066; reduction in serum level following CytoSorb treatment (in words) [9]: significant reduction; removal by dialysis (in words) [10]: moderate removal; clearance ([10]; after 8 h): below 10 mL/min; clearance ([10]; highest value reached): ≤ 28 mL/min"
"C=CC[C@@H]1/C=C(\C)C[C@H](C)C[C@H](OC)[C@H]2O[C@@](O)(C(=O)C(=O)N3CCCC[C@H]3C(=O)O[C@H](/C(C)=C/[C@@H]3CC[C@@H](O)[C@H](OC)C3)[C@H](C)[C@@H](O)CC1=O)[C@H](C)C[C@@H]2OC [TAC, tacrolimus]",not effectively removed,18 pg/mL,28 pg/mL,1654 pg/mL,38 pg/mL,93 pg/mL,773 pg/mL,8613 pg/mL,53 pg/mL,268 pg/mL,2598 pg/mL,25920 pg/mL,85 pg/mL,412 pg/mL,7095 pg/mL,7756 pg/mL,1967 pg/mL,62 pg/mL,584 pg/mL,2388 pg/mL,"clearance ([1]; throughout): below 2 mL/min; TNF-α serum level ([4]; test 2): 1337 pg/mL; IL-1β serum level ([4]; test 3): 646 pg/mL; IL-6 serum level ([4]; test 3): 23302 pg/mL; IL-8 serum level ([4]; test 3): 50044 pg/mL; TNF-α serum level ([4]; test 3): 690 pg/mL; mean clearance rate [5]: around 15 mL/min; reduction of serum levels by CytoSorb (abstract) [5]: no significant effect; adsorption (removal) by CytoSorb [5]: 18 ± 16%; reduction of level in plasma by CytoSorb [7]: not affected; Protein Binding in Plasma, Current Study [8]: 97.9 ± 10.9%; reduction in serum level following CytoSorb treatment (in words) [9]: no significant adsorption; removal by dialysis (in words) [10]: not effectively removed"
